Results published in patent publication US12454529B2, “Piperazine cyclic ureas” (SIRONAX LTD., priority 2020, dated 2025).

system: HT-29 cells; experiment: HT-29 cell necrosis/necroptosis inhibition (TNF-α + SMAC mimetic + zVAD-FMK; CellTiter-Glo cell viability); assay type: cell-based; conditions: Homo sapiens, HT-29, 20 h, read-out: EC50 (Cell activity; Necrosis/Necroptosis Inhibitory Activity, Compounds 1-142)
Summary of the method: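 Necroptosis was driven by TNF-α 10 ng/ml plus SMAC mimetic 6 μM and zVAD-FMK 10 μM in serum-free medium, with compounds as a 10-point threefold titration. After 20 h at 37 °C, ATP-based luminescence was read; EC50 values are geometric means of duplicate curves.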

Row | Compound | EC50
1 | Cn1cnn(-c2nc(N3CCN(C(=O)N4N=CC[C@H]4c4cc(F)cc(C#N)c4)CC3)ncc2F)c1=O [Compound 140, (S)-3-fluoro-5-(1-(4-(5-fluoro-4-(4-methyl-5-oxo-4,5-dihydro-1H-1,2,4-triazol-1-yl)pyrimidin-2-yl)piperazine-1-carbonyl)-4,5-dihydro-1H-pyrazol-5-yl)benzonitrile] | 0.1 to 100 nM
2 | Cc1nn(CC#N)c(C)c1-c1nc(N2CCN(C(=O)N3N=CC[C@H]3c3cc(F)cc(C#N)c3)CC2)ncc1F [Compound 136, (S)-3-(1-(4-(4-(1-(cyanomethyl)-3,5-dimethyl-1H-pyrazol-4-yl)-5-fluoropyrimidin-2-yl)piperazine-1-carbonyl)-4,5-dihydro-1H-pyrazol-5-yl)-5-fluorobenzonitrile] | 0.1 to 100 nM

same assay, conditions: Homo sapiens, HT-29, 20 h, read-out: EC50 (Cell activity; Necrosis/Necroptosis Inhibitory Activity, Compounds 143-323)

Row | Compound | EC50
3 | Cc1ncc(C#N)n1-c1nc(N2CCN(C(=O)N3N=CC[C@H]3c3cc(F)cc(C#N)c3)CC2)ncc1F [Compound 148, 1-(2-(4-((S)-5-(3-cyano-5-fluorophenyl)-4,5-dihydro-1H-pyrazole-1-carbonyl)piperazin-1-yl)-5-fluoropyrimidin-4-yl)-2-methyl-1H-imidazole-5-carbonitrile] | 0.1 to 100 nM

same assay, conditions: Homo sapiens; HT-29 cells, TNF-α 10 ng/ml + SMAC mimetic 6 μM + zVAD-FMK 10 μM, 20 hours; geometric mean, 10 points in duplicate; read-out: EC50 (Cell activity; Necrosis/Necroptosis Inhibitory Activity, Compounds 1-142)

Row | Compound | EC50
4 | Cc1cnn(C)c1-c1nc(N2CCN(C(=O)N3N=CC[C@H]3c3cc(F)cc(F)c3)CC2)ncc1F [Compound 61, (S)-(5-(3,5-difluorophenyl)-4,5-dihydro-1H-pyrazol-1-yl)(4-(4-(1,4-dimethyl-1H-pyrazol-5-yl)-5-fluoropyrimidin-2-yl)piperazin-1-yl)methanone] | 0.1 to 100 nM
5 | Cc1cnn(C)c1-c1cc(N2CCN(C(=O)N3N=CC[C@H]3c3cc(F)cc(F)c3)CC2)ncc1F [Compound 114, (S)-(5-(3,5-difluorophenyl)-4,5-dihydro-1H-pyrazol-1-yl)(4-(4-(1,4-dimethyl-1H-pyrazol-5-yl)-5-fluoropyridin-2-yl)piperazin-1-yl)methanone] | 0.1 to 100 nM
6 | NC(=O)Cn1ccc(-c2nc(N3CCN(C(=O)N4N=CC[C@H]4c4ccccc4)CC3)ncc2F)n1 [Compound 77] | 0.1 to 100 nM
7 | Cc1nnnn1-c1nc(N2CCN(C(=O)N3N=CC[C@H]3c3cc(F)cc(C#N)c3)CC2)ncc1F [Compound 59, (S)-3-fluoro-5-(1-(4-(5-fluoro-4-(5-methyl-1H-tetrazol-1-yl)pyrimidin-2-yl)piperazine-1-carbonyl)-4,5-dihydro-1H-pyrazol-5-yl)benzonitrile] | 0.1 to 100 nM
8 | Cc1[nH]nnc1-c1nc(N2CCN(C(=O)N3N=CC[C@H]3c3cc(F)cc(F)c3)CC2)ncc1F [Compound 30, (S)-(5-(3,5-difluorophenyl)-4,5-dihydro-1H-pyrazol-1-yl)(4-(5-fluoro-4-(5-methyl-1H-1,2,3-triazol-4-yl)pyrimidin-2-yl)piperazin-1-yl)methanone] | 0.1 to 100 nM
9 | CCn1c(C)nn(-c2nc(N3CCN(C(=O)N4N=CC[C@H]4c4cc(F)cc(F)c4)CC3)ncc2F)c1=O [Compound 98, (S)-2-(2-(4-(5-(3,5-difluorophenyl)-4,5-dihydro-1H-pyrazole-1-carbonyl)piperazin-1-yl)-5-fluoropyrimidin-4-yl)-4-ethyl-5-methyl-2,4-dihydro-3H-1,2,4-triazol-3-one] | 0.1 to 100 nM
10 | COC(=O)c1c[nH]c(-c2ccnc(N3CCN(C(=O)N4N=CC[C@H]4c4cc(F)cc(F)c4)CC3)n2)c1 [Compound 9, methyl (5)-5-(2-(4-(5-(3,5-difluorophenyl)-4,5-dihydro-1H-pyrazole-1-carbonyl)piperazin-1-yl)pyrimidin-4-yl)-1H-pyrrole-3-carboxylate] | 0.1 to 100 nM
11 | O=C(N1CCN(c2ncc(F)c(-c3[nH]nnc3C(F)(F)F)n2)CC1)N1N=CC[C@H]1c1cc(F)cc(F)c1 [Compound 105, (S)-(5-(3,5-difluorophenyl)-4,5-dihydro-1H-pyrazol-1-yl)(4-(5-fluoro-4-(4-(trifluoromethyl)-1H-1,2,3-triazol-5-yl)pyrimidin-2-yl)piperazinyl)methanone] | 0.1 to 100 nM
12 | O=C(N1CCN(c2ncc(F)c(-c3cnn(CCO)c3)n2)CC1)N1N=CC[C@H]1c1cc(F)cc(F)c1 [Compound 60, (S)-(5-(3,5-difluorophenyl)-4,5-dihydro-1H-pyrazol-1-yl)(4-(5-fluoro-4-(1-(2-hydroxyethyl)-1H-pyrazol-4-yl)pyrimidin-2-yl)piperazin-1-yl)methanone] | 0.1 to 100 nM
13 | O=C(N1CCN(c2nccc(-c3cc[nH]n3)n2)CC1)N1N=CC[C@H]1c1cncc(F)c1 [Compound 36, (S)-(4-(4-(1H-pyrazol-3-yl)pyrimidin-2-yl)piperazin-1-yl)(5-(5-fluoropyridin-3-yl)-4,5-dihydro-1H-pyrazol-1-yl)methanone] | 0.1 to 100 nM
14 | Cn1ccc(-c2nc(N3CCN(C(=O)N4N=CC[C@H]4c4cc(F)cc(F)c4)CC3)ncc2F)n1 [Compound 27, (S)-(5-(3,5-difluorophenyl)-4,5-dihydro-1H-pyrazol-1-yl)(4-(5-fluoro-4-(1-methyl-1H-pyrazol-3-yl)pyrimidin-2-yl)piperazin-1-yl)methanone] | 0.1 to 100 nM
15 | Cc1cc(O)n(-c2nc(N3CCN(C(=O)N4N=CC[C@H]4c4cc(F)cc(C#N)c4)CC3)ncc2F)n1 [Compound 141, (S)-3-fluoro-5-(1-(4-(5-fluoro-4-(5-hydroxy-3-methyl-1H-pyrazol-1-yl)pyrimidin-2-yl)piperazine-1-carbonyl)-4,5-dihydro-1H-pyrazol-5-yl)benzonitrile] | 0.1 to 100 nM
16 | NC(=O)Cn1ccc(-c2nc(N3CCN(C(=O)N4N=CC[C@H]4c4cc(F)cc(F)c4)CC3)ncc2F)n1 [Compound 29, (S)-2-(3-(2-(4-(5-(3,5-difluorophenyl)-4,5-dihydro-1H-pyrazole-1-carbonyl)piperazin-1-yl)-5-fluoropyrimidin-4-yl)-1H-pyrazol-1-yl)acetamide] | 0.1 to 100 nM

same assay, conditions: Homo sapiens; HT-29 cells, TNF-α 10 ng/ml + SMAC mimetic 6 μM + zVAD-FMK 10 μM, 20 hours; geometric mean, 10 points in duplicate; read-out: EC50 (Cell activity; Necrosis/Necroptosis Inhibitory Activity, Compounds 143-323)

Row | Compound | EC50
17 | Cn1nc(C(=O)O)nc1-c1nc(N2CCN(C(=O)N3N=CCC3c3cc(F)cc(F)c3)CC2)ncc1F (centres unmarked) [Compound 230, 5-(2-(4-(5-(3,5-difluorophenyl)-4,5-dihydro-1H-pyrazole-1-carbonyl)piperazin-1-yl)-5-fluoropyrimidin-4-yl)-1-methyl-1H-1,2,4-triazole-3-carboxylic acid] | 100 to 1000 nM
18 | Cc1nn(-c2cc(N3CCN(C(=O)N4N=CC[C@H]4c4cncc(F)c4)CC3)ncn2)c(C)c1C#N [Compound 286, (S)-1-(6-(4-(5-(5-fluoropyridin-3-yl)-4,5-dihydro-1H-pyrazole-1-carbonyl)piperazin-1-yl)pyrimidin-4-yl)-3,5-dimethyl-1H-pyrazole-4-carbonitrile] | 0.1 to 100 nM
19 | Cn1nc(CO)nc1-c1nc(N2CCN(C(=O)N3N=CC[C@H]3c3cncc(F)c3)CC2)ncc1F [Compound 174, (S)-(4-(5-fluoro-4-(3-(hydroxymethyl)-1-methyl-1H-1,2,4-triazol-5-yl)pyrimidin-2-yl)piperazin-1-yl)(5-(5-fluoropyridin-3-yl)-4,5-dihydro-1H-pyrazol-1-yl)methanone] | 0.1 to 100 nM
20 | Cc1cc[nH]c(=O)c1-c1nc(N2CCN(C(=O)N3N=CC[C@H]3c3cc(F)cc(C#N)c3)CC2)ncc1F [Compound 164, (S)-3-fluoro-5-(1-(4-(5-fluoro-4-(4-methyl-2-oxo-1,2-dihydropyridin-3-yl)pyrimidin-2-yl)piperazine-1-carbonyl)-4,5-dihydro-1H-pyrazol-5-yl)benzonitrile] | 0.1 to 100 nM
21 | Cc1nc(C(F)(F)F)nn1-c1ccnc(N2CCN(C(=O)N3N=CC[C@H]3c3cc(F)cc(C#N)c3)CC2)n1 [Compound 147, (S)-3-fluoro-5-(1-(4-(4-(5-methyl-3-(trifluoromethyl)-1H-1,2,4-triazol-1-yl)pyrimidin-2-yl)piperazine-1-carbonyl)-4,5-dihydro-1H-pyrazol-5-yl)benzonitrile] | 0.1 to 100 nM
22 | Cc1nc(CO)nn1-c1nc(N2CCN(C(=O)N3N=CC[C@H]3c3cc(F)cc(F)c3)CC2)ncc1F [Compound 251, (S)-(5-(3,5-difluorophenyl)-4,5-dihydro-1H-pyrazol-1-yl)(4-(5-fluoro-4-(3-(hydroxymethyl)-5-methyl-1H-1,2,4-triazol-1-yl)pyrimidin-2-yl)piperazinyl)methanone] | 0.1 to 100 nM
23 | Cc1cnn(C)c1-c1ncc(F)c(N2CCN(C(=O)N3N=CC[C@H]3c3cc(F)cc(F)c3)CC2)n1 [Compound 301, (S)-(5-(3,5-difluorophenyl)-4,5-dihydro-1H-pyrazol-1-yl)(4-(2-(1,4-dimethyl-1H-pyrazol-5-yl)-5-fluoropyrimidin-4-yl)piperazin-1-yl)methanone] | 0.1 to 100 nM
24 | Cc1nn(-c2ccnc(N3CCN(C(=O)N4N=CC[C@H]4c4cncc(F)c4)CC3)n2)c(C)c1C(N)=O [Compound 285, (S)-1-(2-(4-(5-(5-fluoropyridin-3-yl)-4,5-dihydro-1H-pyrazole-1-carbonyl)piperazin-1-yl)pyrimidin-4-yl)-3,5-dimethyl-1H-pyrazole-4-carboxamide] | 0.1 to 100 nM
25 | Cc1nn2c(c1-c1nc(N3CCN(C(=O)N4N=CC[C@H]4c4cc(F)cc(C#N)c4)CC3)ncc1F)CCC2 [Compound 184, (S)-3-fluoro-5-(1-(4-(5-fluoro-4-(2-methyl-5,6-dihydro-4H-pyrrolo[1,2-b]pyrazol-3-yl)pyrimidin-2-yl)piperazine-1-carbonyl)-4,5-dihydro-1H-pyrazol-5-yl)benzonitrile] | 0.1 to 100 nM
26 | Cc1ncn(-c2nc(N3CCN(C(=O)N4N=CC[C@H]4c4cccc(F)c4)CC3)ncc2F)n1 [Compound 310, (S)-(4-(5-fluoro-4-(3-methyl-1H-1,2,4-triazol-1-yl)pyrimidin-2-yl)piperazin-1-yl)(5-(3-fluorophenyl)-4,5-dihydro-1H-pyrazol-1-yl)methanone] | 0.1 to 100 nM
